# Assay results as given in patent US20230295088A1, “INSULIN SENSITIZERS FOR THE TREATMENT OF DIABETES MELLITUS” (University of Iowa Research Foundation, priority 2020, published 2023).
# “Also recorded” adds a separate entry of the source.
# Tests used:
# [1] = system: GLUT4 translocation in HBG4 mice; test: In vivo GLUT4 translocation in HBG4 mice (IVIS luminescence); design: species or system mouse; conditions: HBG4 mice, daily IP 50 mg/Kg for 3 days, insulin IP
# Description: (§1) C3 potentiates insulin action in primary adipocytes and in live mice. Using HBG4 mice, insulin stimulated GLUT4 translocation of endogenous GLUT4 was measured in primary skeletal muscle fibers and primary adipocytes. Enhancement of insulin-stimulated translocation of endogenous GLUT4 was also shown in primary adipocytes in the presence of C3. In parallel dishes, increased insulin-stimulated glucose uptake in HBG4 primary adipocyte treated with C3 was found. […] To determine if the HBG4 mouse can be used to measure GLUT4 translocation in vivo, HBG4 mice were pretreated with daily IP injections of vehicle or 50 mg/Kg C3 for 3 days. On the day of the experiment, mice were injected with vehicle or insulin IP followed by a subcutaneous injection of LgBiT and substrate around the leg muscles. Mice were then anesthetized and placed into an IVIS system to measure luminescence. […] Baseline signal was detected in vehicle and C3 treated HBG4 mice. […]
# DIO HBG4 mice were treated with vehicle or C59 for 2 weeks and injected i.v. with an adenovirus coding for a secreted form of LgBiT (allowing LgBiT production and secretion predominantly by the liver into the circulation) 2 days prior to the experiment. Animal were then injected with saline or insulin 10 minutes before i.v. injection of substrate and luminescence imaging using an IVIS system.
# liver = test: Liver toxicity markers and liver triglyceride in treated mice; assay type: in vivo, mouse
# Description: (§2) C3 is not liver toxic and acts through a different mechanism than TZDs. […] Deleterious side effect or TZDs are due to their agonism of PPARg.
# [2] = system: endogenous GLUT4 in primary adipocytes; test: Insulin-stimulated translocation of endogenous GLUT4 in HBG4 primary adipocytes; assay type: cell-based, mouse
# Description: Generating a mouse model for measurement of GLUT4 translocation ex vivo and in-vivo. To enable the validation of identified compounds in a relevant system, a mouse model in which the coding sequence for HiBiT was inserted in the first extracellular loop of endogenous GLUT4 using CRISPR/Cas9 (HBG4 mouse) was prepared. […] GLUT4 was detected in skeletal muscle, white adipose tissue, and brown adipose tissue but not in the brain, spleen, liver, or pancreas, thus, confirming the normal distribution of HiBit-labeled GLUT4 and the ability of this assay to detect endogenous GLUT4 in mouse tissues.
# as §1, with “On the day of the experiment, mice were injected with vehicle or insulin IP followed by a subcutaneous injection of LgBiT and substrate around the leg muscles.” left out
# primary adipocytes = test: Insulin-stimulated glucose uptake in primary adipocytes; assay type: cell-based, mouse
# Description: C3 potentiates insulin action in primary adipocytes and in live mice. Using HBG4 mice, insulin stimulated GLUT4 translocation of endogenous GLUT4 was measured in primary skeletal muscle fibers and primary adipocytes. Enhancement of insulin-stimulated translocation of endogenous GLUT4 was also shown in primary adipocytes in the presence of C3. In parallel dishes, increased insulin-stimulated glucose uptake in HBG4 primary adipocyte treated with C3 was found. […] To determine if the HBG4 mouse can be used to measure GLUT4 translocation in vivo, HBG4 mice were pretreated with daily IP injections of vehicle or 50 mg/Kg C3 for 3 days. On the day of the experiment, mice were injected with vehicle or insulin IP followed by a subcutaneous injection of LgBiT and substrate around the leg muscles. Mice were then anesthetized and placed into an IVIS system to measure luminescence. […] Baseline signal was detected in vehicle and C3 treated HBG4 mice. […] It also further confirms the insulin-sensitizing activity of C3 in vivo.
# [3] = system: diet-induced obese (DIO) mice; test: Glucose tolerance, fasting glucose and insulin in diet-induced obese (DIO) insulin-resistant mice; assay type: in vivo, mouse
# Description: To test whether C3 improves glucose handling, WT mice were made insulin-resistant by feeding them a high fat diet (HFD) for a period of 10 weeks. After 10 weeks, mice were injected with vehicle. C3 (20 mg/kg), or the TZD rosiglitazone (20 mg/kg) for 2 weeks while remaining on the HFD. […] To further test the in vivo efficacy of C3, a glucose tolerance test (GTT) was perfromed.
# To test whether C3 improves glucose handling, lean mice were injected with vehicle or C3 30 minutes before performing a glucose tolerance test. […] To further determine if C3 can reverse glucose intolerance, WT mice were made insulin-resistant by feeding them a high fat diet (HFD) for a period of 10 weeks. Diet induced obese (DIO) mice were then injected with vehicle or C3 for 2 weeks while remaining on HFD.
# lean mice = test: Glucose tolerance test in lean mice; assay type: in vivo, mouse; conditions: single injection before GTT
# Description: C3 improves glucose tolerance in lean and obese insulin resistant mice. To test whether C3 improves glucose handling, lean mice were injected with vehicle or C3 30 minutes before performing a glucose tolerance test. […] To further determine if C3 can reverse glucose intolerance, WT mice were made insulin-resistant by feeding them a high fat diet (HFD) for a period of 10 weeks. Diet induced obese (DIO) mice were then injected with vehicle or C3 for 2 weeks while remaining on HFD. […] Together those results establish in vivo efficacy of C3 for the treatment of insulin resistance.
# PPARg = target: T1, PPARg (Homo sapiens, UniProt P37231); test: Luminescent PPARg reporter assay in vitro; assay type: cell-based
# T1 sequence (P37231 1-505): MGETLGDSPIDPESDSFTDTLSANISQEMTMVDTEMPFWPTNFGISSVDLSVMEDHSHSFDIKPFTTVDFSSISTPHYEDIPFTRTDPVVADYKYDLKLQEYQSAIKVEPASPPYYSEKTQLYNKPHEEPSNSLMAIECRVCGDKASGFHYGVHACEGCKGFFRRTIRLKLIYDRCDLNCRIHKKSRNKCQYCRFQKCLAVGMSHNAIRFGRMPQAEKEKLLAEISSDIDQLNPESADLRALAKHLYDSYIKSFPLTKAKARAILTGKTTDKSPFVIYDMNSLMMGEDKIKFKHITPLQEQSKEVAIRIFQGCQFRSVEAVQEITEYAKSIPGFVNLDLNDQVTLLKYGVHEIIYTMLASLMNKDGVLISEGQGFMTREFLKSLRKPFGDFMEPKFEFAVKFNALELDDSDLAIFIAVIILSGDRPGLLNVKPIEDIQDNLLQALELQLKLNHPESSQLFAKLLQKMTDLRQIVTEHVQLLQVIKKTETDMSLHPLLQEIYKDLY
# Description: as §2
# [4] = system: GLUT4 translocation in C2C12 myoblast cell line stably expressing HiBiT-GLUT4 (HBG4); test: HiBiT (NanoBit) luminescence GLUT4 translocation assay in HBG4 C2C12 cells; assay type: cell-based, mouse
# Description: An assay was used to identify potentiators of insulin-stimulated GLUT4 translocation. In one embodiment, the assay employs Nanobit technology. This technology is based on the recombination of two complementary fragments, HiBiT and LgBiT, of the Nanoluc luciferase. HiBit was fused to an extracellular region of GLUT4 to allow for the rapid quantitation of its the surface density in live cells by adding the reconibinantly produced complementary fragment LgBiT and the luciferase substrate. Since LgBiT is not membrane permeant, only proteins at the plasma membrane are quantified. To measure GLUT4 translocation, a stable C2C12 myoblast cell line was prepared by expressing a HiBiT-tagged mouse GLUT4. […] The Chembridge Diverset library of 49,600 compounds was screened and 1264 hits were identified. A subset of those hits were selected and retested in the presence and absence of insulin.
# Development of a HTS assay for real-time measurement of GLUT4 translocation. To measure GLUT4 translocation in a homogenous and HIS amenable manner, NanoBit technology was used. This technology relies on the rapid recombination of 2 fragments of the Nanoluc luciferase (HiBit and LgBiT) with high affinity for each other. Fragments have no enzymatic activity on their own but generate a bright luminescent signal when recombined. A C2C12 myoblast cell line was prepared that stably expressed HiBiT-GLUT4 (HBG4), in which the small 11 amino acid HiBiT fragment was inserted into the first extracellular loop of GLUT4. A C-terminal mCherry was also added for microscopic detection. The C2C12 line was chosen as an in vitro model because it is derived from skeletal myoblasts and translocate GLUT4 in response to insulin. Detection of plasma membrane density of HBG4 is achieved by adding recombinant LgBit and substrate to live cells. The assay can be conducted as an endpoint where cells are incubated with insulin before measuring luminescence or as a kinetic assay by adding LgBiT and substrate at the beginning of the experiment and monitor real-time insulin-stimulated GLUT4 translocation.
# An assay to measure GLUT4 translocation in a homogenous and HIS amenable manner using NanoBit technology was developed. This technology relies on the rapid recombination of 2 fragments of the Nanoiuc luciferase (HiBit and LgBiT) with high affinity for each other. Fragments have no enzymatic activity on their own but generate a bright luminescent signal when recombined. A C2C12 myoblast cell line stably expressing HiBiT-GLUT4 (HBG4), in which the small 11 amino acid HiBiT fragment was inserted into the first extracellular loop of GLUT4 was prepared. A C-terminal mCherry was also added for microscopic detection (FIGS. 1A and B). The C2C12 line was chosen as an in-vitro model because it is derived from skeletal myoblasts and translocates GLUT4 in response to insulin. Detection of plasma membrane density of HBG4 is achieved by adding recombinant LgBit and substrate to live cells (FIG. 1C). The assay can be conducted as a kinetic assay by adding LgBiT and substrate at the beginning of the experiment and monitoring real-time insulin-stimulated GLUT4 translocation (FIGS. 1D and E).
# [5] = DIO mice, 2 weeks treatment (20 mg/kg)
smiles,measurement,setting,value
O=C(Nc1ccc(Cl)c(Cl)c1)C12CC3CC(CC(C3)C1)C2 [Compound C3],insulin-induced luminescence (GLUT4 translocation) in vivo,[1],further increased
same,liver triglyceride content,"liver; DIO mice, compared to saline treated mice",significant decrease
same,plasma level of liver enzyme ALT,liver; treated mice,Neither liver toxicity markers were increased
same,plasma level of liver enzyme AST,liver; treated mice,Neither liver toxicity markers were increased
same,insulin-stimulated translocation of endogenous GLUT4,[2],Enhancement
same,insulin-stimulated glucose uptake,primary adipocytes,significantly improved; also recorded: increased
same,glucose handling in glucose tolerance test,"[3]; DIO mice (HFD 10 weeks), injected for 2 weeks (20 mg/kg)",drastically improved; also recorded: rapidly cleared glucose; also recorded: very significant improvement
same,insulin response to the glucose challenge,"[3]; DIO mice, 20 mg/kg for 2 weeks, GTT",normal insulin response
same,fasting blood glucose,[3]; [5],significantly decreased
same,fasting plasma insulin,[3]; [5],significantly decreased
same,glucose clearance in glucose tolerance test,lean mice,drastically improved; also recorded: significantly accelerated
same,PPARg agonist activity,PPARg,did not activate; also recorded: no agonist activity; also recorded: neither C3 nor C59 have PPARγ agonist activity
same,GLUT4 translocation on its own,"[4]; in the absence of insulin, HBG4 C2C12 cells",no effect
same,insulin-stimulated GLUT4 translocation,"[4]; in the presence of insulin, WT HBG4 C2C12 cells",significantly potentiated; also recorded: enhanced
